What was measured:
[1] = Pharmacokinetics: plasma levels of valproic acid in Sprague-Dawley rats; format: in vivo; conditions: rat
Experimental: The test tubes are then removed from the ice and are stirred for a period of ten minutes. Centrifugation is carried out for the purpose of separating the phases and the organic phase in n-hexane is directly injected into the gas-chromatographic apparatus.
The study of plasma levels is carried out on Sprague-Dawley albino rats of an average body weight of 215 grams (200-230). Prior to the experiment, the rats fasted for a period of twelve hours. The acid is administered both orally and intravenously, but the ester alone is administered orally. The administrations are carried out with equimolar doses, that is in the dose of 1.39 millimole/kg which corresponds to a dose of 230 mg/kg in the case of the acid administered as the sodium salt and a dose of 360 mg/kg in the case of PEV. Both the acid as well as the ester are dissolved in ethyleneglycol:ethyl alcohol in the proportion of 65-35 (V/V). The concentration of the solution is calculated in a manner to administer 2 cc/kg. After the intervals of time shown in Table 2 in minutes or in hours, the rats in groups of six, are killed by decapitation, the blood is collected and centrifuged for the purpose of obtaining the plasma which is extracted and analyzed as previously described.
On the basis of the results, it is concluded that PEV is absorbed more rapidly, but even more significant, more uniformly compared with valproic acid. An index of the dispersion of the data has been calculated by determining the standard variation in percent with respect to the average value for each group under examination.

Wister rats = conditions: rat, oral, literature value; cited from earlier work
[2] = Acute toxicity in Swiss albino mice (Lichtfield and Wilcoxon); conditions: in vivo, mouse, mortality within 8 days, read-out: DL50 and range
Experimental: (§1) The acute toxicity of PEV has been investigated on Swiss albino mice of about 20 grams average weight and in Wister rats of 150±10 grams average weight by administration both through the oral route and by the endoperitoneal route.
(§2) All the animals fasted beginning 12 hours before the experiment. For the experiment, there are used 10 animals that is 5 males and 5 females for each dosage level of treatment. The values of […] are expressed in mg/kg and are calculated on the basis of the mortality which has been determined within 8 days after the administration in accordance with the method of Lichtfield and Wilcoxon.

[3] = Acute toxicity in Wister rats (Lichtfield and Wilcoxon); conditions: in vivo, rat, mortality within 8 days, read-out: DL50 and range
Experimental: as §1, §2

Solubility = format: physicochemical

SMILES | Average index of dispersion of plasma levels (standard variation in percent of average) ([1]; in vivo, iv) | Average index of dispersion of plasma levels (standard variation in percent of average) ([1]; in vivo, po) | DL50 (Merck Index, 9th Edition) (Wister rats) [mg/kg] | bioavailability ([1]; in vivo, 1390 umol/kg, oral, from AUC versus i.v., read-out: Absolute biodisponibility) [%] | LD50 at 192 h ([2]; ip, endoperitoneal) [mg/kg] | LD50 at 192 h ([2]; oral) [mg/kg] | LD50 at 192 h ([3]; ip, endoperitoneal) [mg/kg] | LD50 at 192 h ([3]; oral) [mg/kg] | Absolute biodisponibility ([1]; in vivo) [%] | Difference in biodisponibility in favor of the ester ([1]; in vivo, po) [%] | Presence of PEV (intact ester) in the plasma ([1]; orally, 1.39 mmoles/kg) | Solubility in alcohols, ethers, ketones (Solubility; alcohols, ethers, ketones) | Solubility in water (Solubility; water)
CCCC(CCC)C(=O)O [valproic acid, 2-propyl-pentanoic acid] | 18.3 | 60.5 | 670 | – | – | – | – | – | – | – | – | – | –
CCCC(CCC)C(=O)[O-].[Na+] [sodium valproate, reference compound] | – | – | – | 49.9 | – | – | – | – | – | – | – | – | –
CCCC(CCC)C(=O)OCOC(=O)C(C)(C)C [PEV, pivaloyloxymethyl 2-propyl-pentanoate] | – | 15.2 | – | – | 510 | 1210 | 608 | 1440 | 72.4 | 45.5 | none of the rats treated with the ester have exhibited the presence of PEV in the plasma | soluble in alcohols, ethers, ketones | insoluble in water

— US4442124A, “Valproic acid ester with antiepileptic and anticonvulsant activity and pharmaceutical compositions therefrom” (priority 1979, dated 1984)
